These are literature values, as cited in patent US20240197646A1, “DRUG DELIVERY SYSTEM AND METHODS OF USING THE SAME” (Axogen Corporation, priority 2022, published 2024).

For the series the following is noted: stated reference level, no source or test given.

SMILES strings stand for the structures.

On to `C=CC[C@@H]1/C=C(\C)C[C@H](C)C[C@H](OC)[C@H]2O[C@@](O)(C(=O)C(=O)N3CCCC[C@H]3C(=O)O[C@H](/C(C)=C/[C@@H]3CC[C@@H](O)[C@H](OC)C3)[C@H](C)[C@@H](O)CC1=O)[C@H](C)C[C@@H]2OC` [FK506], for which the toxic dose entry was “about 5 mg/ml”.
